Molecular target: human SLC22A1/OCT1 protein (Homo sapiens, UniProt O15245)
Details: ethidium bromide and cimetidine simultaneously injected into ventral side of Drosophila melanogaster embryos expressing OCT1/SLC22A1 reference sequence in salivary glands (GAL4/UAS); confocal laser scanning microscopy
Procedure: The salivary glands are moreover characterized by the tissue-specific expression of GFP. These living embryos were injected with 0.5 μM ethidium bromide. The accumulation of ethidium bromide in the salivary glands was visualized by confocal laser scanning microscopy.
The salivary glands are moreover characterized by the tissue-specific expression of GFP. Ethidium bromide and cimetidine were simultaneously injected into the ventral side of the embryos.

Sequence of human SLC22A1/OCT1 protein (O15245 whole entry, the tested form may be a part): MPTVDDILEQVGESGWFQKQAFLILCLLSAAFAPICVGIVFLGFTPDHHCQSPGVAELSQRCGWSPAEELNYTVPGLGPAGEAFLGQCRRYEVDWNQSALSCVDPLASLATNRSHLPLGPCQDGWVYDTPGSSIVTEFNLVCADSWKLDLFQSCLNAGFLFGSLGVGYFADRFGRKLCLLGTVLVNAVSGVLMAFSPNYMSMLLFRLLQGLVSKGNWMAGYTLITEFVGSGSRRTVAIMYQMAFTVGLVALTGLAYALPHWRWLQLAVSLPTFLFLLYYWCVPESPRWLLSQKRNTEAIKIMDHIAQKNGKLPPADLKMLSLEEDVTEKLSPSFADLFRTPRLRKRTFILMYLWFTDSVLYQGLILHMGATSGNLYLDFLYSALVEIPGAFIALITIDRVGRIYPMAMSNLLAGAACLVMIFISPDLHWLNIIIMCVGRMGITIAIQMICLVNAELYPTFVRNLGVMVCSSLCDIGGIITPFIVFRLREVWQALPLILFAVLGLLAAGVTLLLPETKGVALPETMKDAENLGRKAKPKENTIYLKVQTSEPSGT

## CN/C(=N/CCSCc1nc[nH]c1C)NC#N [cimetidine]
  inhibition of the uptake of ethidium bromide: concentration-dependent
